≈ marks a conversion by molar mass, not a printed value. Calls of active or inactive are those of the source. The rule behind the calls is not given here.
Legend:
[1] = molecular target: 5-hydroxytryptamine receptor 7 (Homo sapiens, UniProt P34969); test: Displacement of [3H]-5-CT from human 5-HT7 receptor expressed in CHO-K1 cells membrane by scintillation counter analysis; assay type: cell membranes
[2] = Plasma protein binding in human by LC-MS/MS analysis; assay type: ADME, cell-free; conditions: read-out: PPB (converted)
[3] = Permeability of the compound across apical to basolateral side in human Caco-2 cells at pH 7.4; assay type: ADME, cell-based; conditions: Caco-2, pH 7.4, read-out: Papp
[4] = Aqueous solubility of compound in PBS buffer at pH 7.4 by UV absorbance based analysis; assay type: physicochemical
[5] = AUC(0 to t) in mouse frontal cortex at 0.625 mg/kg, ip by LC/ESI-MS/MS analysis; assay type: ADME, organism-based; design: dose 0.625 mg/kg, route ip
[6] = AUC(0 to t) in mouse hippocampus at 0.625 mg/kg, ip by LC/ESI-MS/MS analysis; assay type: ADME, organism-based; design: dose 0.625 mg/kg, route ip
[7] = Metabolic stability in human liver microsomes assessed as intrinsic clearance
[8] = Ratio of drug concentration in Hippocampus to plasma in mouse at 0.625 mg/kg, ip by LC/ESI-MS/MS analysis; assay type: ADME, organism-based; conditions: hippocampus and plasma
[9] = Ratio of drug concentration in striatum to plasma in mouse at 0.625 mg/kg, ip by LC/ESI-MS/MS analysis; assay type: ADME, organism-based; conditions: striatum and plasma
[10] = molecular target: 5-hydroxytryptamine receptor 2A (Homo sapiens, UniProt P28223); test: Binding affinity to 5HT-2A receptor (unknown origin)
[11] = Ratio of drug concentration in frontal cortex to plasma in mouse at 0.625 mg/kg, ip by LC/ESI-MS/MS analysis; assay type: ADME, organism-based; conditions: frontal cortex and plasma
[12] = Apparent volume of distribution in mouse plasma at 0.625 mg/kg, ip measured up to 480 mins by LC/ESI-MS/MS analysis; assay type: ADME, organism-based
[13] = Metabolic stability in human liver microsomes assessed as half life
[14] = Cmax in mouse hippocampus at 0.625 mg/kg, ip by LC/ESI-MS/MS analysis; assay type: ADME, organism-based; design: dose 0.625 mg/kg, route ip
[15] = Permeability of the compound across apical to basolateral side in human Caco-2 cells at pH 6.5; assay type: ADME, cell-based; conditions: Caco-2, pH 6.5, read-out: Papp
[16] = Aqueous solubility of compound in simulated gastric fluid by UV absorbance based analysis; assay type: physicochemical
[17] = test system: Mus musculus; test: Antidepressant activity in Swiss albino mouse assessed as reduction in immobility time at 0.625 mg/kg, ip measured for last 4 mins of 6 mins test by forced swim test; assay type: functional; design: scale not given: the % may be the effect or the level left; conditions: 0.1 h
[18] = AUC(0 to t) in mouse plasma at 0.625 mg/kg, ip measured up to 480 mins by LC/ESI-MS/MS analysis; assay type: ADME, organism-based; design: time < 480 min, dose 0.625 mg/kg, route ip; conditions: in vivo, 8 h
[19] = test system: Mus musculus; test: Antipsychotic activity in CD-1 mouse assessed as inhibition of amphetamine-stimulated locomotor activity at 5 mg/kg, ip administered 30 mins prior to amphetamine stimulation and measured after 30 mins; assay type: functional, organism-based; conditions: time 60.0 min
[20] = test system: Erythrocyte; test: Hemolytic activity in human erythrocytes at 10^-6 to 10^-5 M after 30 mins by spectrophotometry; assay type: toxicity, cell-based; conditions: 0.5 h, dose lower 1e-06 µmol/L, dose upper 1e-05 µmol/L
[21] = Tmax in mouse plasma at 0.625 mg/kg, ip measured up to 480 mins by LC/ESI-MS/MS analysis; assay type: ADME, organism-based
[22] = molecular target: T1, 5-hydroxytryptamine receptor 1A (Homo sapiens, UniProt P08908); test: Agonist activity at human 5-HT1A receptor expressed in U2OS cells assessed as beta-arrestin recruitment incubated for 5 hrs by Tango assay; assay type: functional, cell-based
T1 sequence (P08908 whole entry): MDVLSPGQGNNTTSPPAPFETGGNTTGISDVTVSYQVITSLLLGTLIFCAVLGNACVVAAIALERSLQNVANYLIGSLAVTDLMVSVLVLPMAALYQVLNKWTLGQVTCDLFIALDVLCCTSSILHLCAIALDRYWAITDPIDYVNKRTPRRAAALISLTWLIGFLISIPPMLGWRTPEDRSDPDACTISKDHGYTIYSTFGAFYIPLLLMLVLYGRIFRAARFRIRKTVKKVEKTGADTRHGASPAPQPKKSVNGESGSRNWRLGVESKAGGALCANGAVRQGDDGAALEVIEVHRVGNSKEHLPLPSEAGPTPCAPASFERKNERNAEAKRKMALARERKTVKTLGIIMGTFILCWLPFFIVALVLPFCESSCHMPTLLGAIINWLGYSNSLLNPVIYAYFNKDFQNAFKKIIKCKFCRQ

[23] = Cmax in mouse striatum at 0.625 mg/kg, ip by LC/ESI-MS/MS analysis; assay type: ADME, organism-based; design: dose 0.625 mg/kg, route ip
[24] = molecular target: cAMP and cAMP-inhibited cGMP 3',5'-cyclic phosphodiesterase 10A (Homo sapiens, UniProt Q9Y233); test: Inhibition of PDE10A (unknown origin) preincubated for 20 mins followed by substrate addition and measured after 1 hr by PEDlight AMP detection reagent based luminescence assay
[25] = molecular target: D(2) dopamine receptor (Homo sapiens, UniProt P14416); test: Binding affinity to dopamine D2 receptor (unknown origin)
[26] = molecular target: 5-hydroxytryptamine receptor 6 (Homo sapiens) (UniProt P50406); test: Inhibition of 5-HT6 receptor (unknown origin); conditions: concentration not given here
5-hydroxytryptamine receptor 6 (Homo sapiens), sequence (P50406 whole entry): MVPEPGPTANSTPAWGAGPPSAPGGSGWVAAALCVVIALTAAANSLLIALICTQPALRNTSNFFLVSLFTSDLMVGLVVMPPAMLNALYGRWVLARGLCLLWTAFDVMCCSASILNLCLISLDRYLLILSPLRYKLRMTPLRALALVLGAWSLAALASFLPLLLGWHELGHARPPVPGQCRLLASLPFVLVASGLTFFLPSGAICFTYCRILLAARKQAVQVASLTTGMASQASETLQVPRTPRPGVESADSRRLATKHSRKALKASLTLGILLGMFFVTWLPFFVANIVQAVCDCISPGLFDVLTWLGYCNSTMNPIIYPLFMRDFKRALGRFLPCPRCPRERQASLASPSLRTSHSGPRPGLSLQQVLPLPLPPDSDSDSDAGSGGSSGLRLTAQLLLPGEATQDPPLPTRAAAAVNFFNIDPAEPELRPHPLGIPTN

5-hydroxytryptamine receptor 7, sequence (P34969 whole entry): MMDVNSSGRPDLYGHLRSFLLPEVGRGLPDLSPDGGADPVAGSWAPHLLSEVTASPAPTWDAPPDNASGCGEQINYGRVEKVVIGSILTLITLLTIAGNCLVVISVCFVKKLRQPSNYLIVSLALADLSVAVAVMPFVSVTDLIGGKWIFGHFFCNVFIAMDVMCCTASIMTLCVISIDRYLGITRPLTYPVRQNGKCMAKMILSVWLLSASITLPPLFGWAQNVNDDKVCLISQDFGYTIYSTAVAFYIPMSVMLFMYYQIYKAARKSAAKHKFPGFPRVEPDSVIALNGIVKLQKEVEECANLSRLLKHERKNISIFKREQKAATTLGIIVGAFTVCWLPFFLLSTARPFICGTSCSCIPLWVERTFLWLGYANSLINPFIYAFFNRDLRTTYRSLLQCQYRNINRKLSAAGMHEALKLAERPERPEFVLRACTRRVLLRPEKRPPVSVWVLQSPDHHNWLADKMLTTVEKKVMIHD
cAMP and cAMP-inhibited cGMP 3',5'-cyclic phosphodiesterase 10A, sequence (Q9Y233 whole entry): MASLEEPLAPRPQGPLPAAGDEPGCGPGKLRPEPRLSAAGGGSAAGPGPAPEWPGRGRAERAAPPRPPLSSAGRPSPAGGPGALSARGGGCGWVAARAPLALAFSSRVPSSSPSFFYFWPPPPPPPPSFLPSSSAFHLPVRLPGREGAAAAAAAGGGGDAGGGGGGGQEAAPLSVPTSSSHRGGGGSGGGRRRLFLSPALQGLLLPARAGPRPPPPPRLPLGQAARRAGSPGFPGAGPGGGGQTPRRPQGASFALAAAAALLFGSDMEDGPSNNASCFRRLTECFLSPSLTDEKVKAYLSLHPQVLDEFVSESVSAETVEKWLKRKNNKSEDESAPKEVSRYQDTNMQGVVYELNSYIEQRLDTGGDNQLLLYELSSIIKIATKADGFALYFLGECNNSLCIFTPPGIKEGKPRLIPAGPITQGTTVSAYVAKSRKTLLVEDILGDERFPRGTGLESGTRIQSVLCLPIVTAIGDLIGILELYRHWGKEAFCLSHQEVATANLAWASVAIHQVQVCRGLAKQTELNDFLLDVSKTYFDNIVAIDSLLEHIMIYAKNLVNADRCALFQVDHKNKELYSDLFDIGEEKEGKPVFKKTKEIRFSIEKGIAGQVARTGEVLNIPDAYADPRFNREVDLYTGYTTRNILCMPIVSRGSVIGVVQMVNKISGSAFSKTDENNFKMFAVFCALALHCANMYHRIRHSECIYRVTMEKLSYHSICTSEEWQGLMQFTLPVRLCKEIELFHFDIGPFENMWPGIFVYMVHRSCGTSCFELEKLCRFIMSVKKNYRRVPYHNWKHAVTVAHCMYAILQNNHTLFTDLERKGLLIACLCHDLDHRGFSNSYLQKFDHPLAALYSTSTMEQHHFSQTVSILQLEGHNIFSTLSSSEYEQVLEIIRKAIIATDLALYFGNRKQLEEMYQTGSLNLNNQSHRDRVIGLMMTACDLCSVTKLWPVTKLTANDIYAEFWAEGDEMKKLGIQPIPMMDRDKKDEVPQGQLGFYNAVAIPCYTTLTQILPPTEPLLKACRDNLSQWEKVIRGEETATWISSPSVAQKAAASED
5-hydroxytryptamine receptor 2A, sequence (P28223 whole entry): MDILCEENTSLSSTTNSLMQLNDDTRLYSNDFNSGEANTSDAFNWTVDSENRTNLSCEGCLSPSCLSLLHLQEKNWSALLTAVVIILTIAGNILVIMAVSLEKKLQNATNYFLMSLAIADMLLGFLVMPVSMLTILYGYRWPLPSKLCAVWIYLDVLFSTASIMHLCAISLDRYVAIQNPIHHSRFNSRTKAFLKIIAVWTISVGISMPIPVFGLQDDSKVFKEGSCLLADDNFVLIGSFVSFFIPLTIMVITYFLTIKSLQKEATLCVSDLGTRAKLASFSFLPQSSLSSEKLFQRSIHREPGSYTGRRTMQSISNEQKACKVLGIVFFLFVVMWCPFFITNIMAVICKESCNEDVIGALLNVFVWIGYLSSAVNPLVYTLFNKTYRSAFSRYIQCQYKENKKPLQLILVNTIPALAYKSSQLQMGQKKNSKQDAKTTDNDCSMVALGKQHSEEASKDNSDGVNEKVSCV
D(2) dopamine receptor, sequence (P14416 whole entry): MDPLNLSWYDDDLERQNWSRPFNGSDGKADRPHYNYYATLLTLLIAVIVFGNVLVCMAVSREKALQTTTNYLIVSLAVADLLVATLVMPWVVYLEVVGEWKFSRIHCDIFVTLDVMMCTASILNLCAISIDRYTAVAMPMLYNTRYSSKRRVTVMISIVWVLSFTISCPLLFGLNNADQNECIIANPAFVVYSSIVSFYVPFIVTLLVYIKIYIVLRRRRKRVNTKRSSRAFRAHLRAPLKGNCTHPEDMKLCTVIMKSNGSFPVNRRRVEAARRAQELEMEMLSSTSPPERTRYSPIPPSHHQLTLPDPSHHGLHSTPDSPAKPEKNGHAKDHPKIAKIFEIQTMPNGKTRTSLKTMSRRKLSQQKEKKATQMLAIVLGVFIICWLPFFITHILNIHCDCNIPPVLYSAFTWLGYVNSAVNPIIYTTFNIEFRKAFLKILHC

Ki [1]: 138 nM
fraction unbound [2]: 0.018
Papp A→B [3]: 0.05 ×10⁻⁶ cm/s
solubility [4]: 187 µM (≈ 87.5 µg/mL)
AUC(0-t) [5]: 1820 ng·h/mL
AUC(0-t) [6]: 1040 ng·h/mL
microsomal CLint [7]: 75.8 µL/min/mg
Kp [8]: 85.4
Kp [9]: 87.4
Ki [10]: > 1000 nM
Kp [11]: 149
Vd/F [12]: 0.272 L/kg
half-life [13]: 49 min
Cmax [14]: 330 ng/mL
Papp A→B [15]: 0.26 ×10⁻⁶ cm/s
solubility [16]: 196 µM (≈ 91.9 µg/mL)
AUCt [18]: 730 ng·min/mL
Tmax [21]: 5 min
EC50 [22]: 12000 nM
Cmax [23]: 317 ng/mL
IC50 [24]: 1700 nM
Ki [25]: > 1000 nM
inhibition [26]: 8%
SMILES: COc1cc2ncnc(N3CCC(CN4CCN(c5ccc(Cl)cc5)CC4)C3)c2cc1OC (stereo unspecified)
Activity [17]: 50%
Activity [19]: Active
Activity [20]: Non-Toxic
